Experimental data from US20200046712A1, “PROCESS FOR MAKING 1,3,7- TRIMETHYLURIC ACID WATER SOLUBLE SALTS OR CO-CRYSTALS AND THEIR USAGE IN DIETARY SUPPLEMENTS OR FUNCTIONAL FOODS FORMULATIONS” (Arcadia Biotechnology Ltd., priority 2018, published 2020).
Where a name gives a salt, the structure may show the parent alone.

Experiment: Solubility in water
Assay type: physicochemical
Conditions: 500 mg upon stirring in 8 oz of room temperature water

Cn1c(=O)c2c([nH]c(=O)n2C)n(C)c1=O [1,3,7-trimethyluric acid sodium salt]
solubility in water: dissolved completely
